Results on 26 molecules are retold here after ChEMBL document CHEMBL5131447, “Discovery of orexin 2 receptor selective and dual orexin receptor agonists based on the tetralin structure: Switching of receptor selectivity by chirality on the tetralin ring” (Bioorg Med Chem Lett, 2022).

For one assay, the species on record is Homo sapiens. Nature of the assay: Selectivity index, ratio of EC50 for agonist activity at OX1R (unknown origin) to EC50 for agonist activity at OX2R (unknown origin).
For another assay, the target named is T1, Orexin receptor type 2 (Homo sapiens, UniProt O43614).
T1 sequence (O43614 whole entry): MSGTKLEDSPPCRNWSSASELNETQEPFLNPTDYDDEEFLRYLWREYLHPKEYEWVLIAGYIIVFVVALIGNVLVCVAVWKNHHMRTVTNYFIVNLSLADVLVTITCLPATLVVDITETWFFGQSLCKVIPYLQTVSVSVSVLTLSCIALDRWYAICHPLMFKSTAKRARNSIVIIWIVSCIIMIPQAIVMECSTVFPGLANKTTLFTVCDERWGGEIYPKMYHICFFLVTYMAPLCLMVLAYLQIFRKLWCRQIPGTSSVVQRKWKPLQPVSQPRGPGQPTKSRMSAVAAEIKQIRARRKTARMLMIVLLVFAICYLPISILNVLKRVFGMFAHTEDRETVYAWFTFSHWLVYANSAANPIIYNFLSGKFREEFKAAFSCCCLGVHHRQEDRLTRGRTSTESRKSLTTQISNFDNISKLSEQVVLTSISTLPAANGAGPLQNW
The experiment in a line: Agonist activity at OX2R (unknown origin). The class given is functional.

Assay [1] concerns the target T2, Orexin/Hypocretin receptor type 1 (Homo sapiens, UniProt O43613).
T2 sequence (O43613 whole entry): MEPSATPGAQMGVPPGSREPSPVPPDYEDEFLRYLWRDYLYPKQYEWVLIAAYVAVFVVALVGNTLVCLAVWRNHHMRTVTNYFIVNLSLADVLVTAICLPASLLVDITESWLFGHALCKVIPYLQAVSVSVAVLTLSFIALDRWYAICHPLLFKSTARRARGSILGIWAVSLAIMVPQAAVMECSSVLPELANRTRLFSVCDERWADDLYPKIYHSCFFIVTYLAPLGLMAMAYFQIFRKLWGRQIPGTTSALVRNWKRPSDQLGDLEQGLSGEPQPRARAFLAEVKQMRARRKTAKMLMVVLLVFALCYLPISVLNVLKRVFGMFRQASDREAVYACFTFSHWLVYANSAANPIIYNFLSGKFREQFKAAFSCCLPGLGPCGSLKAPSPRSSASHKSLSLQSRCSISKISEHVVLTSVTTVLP
Nature of the assay: Agonist activity at OX1R (unknown origin). It is filed as functional.

Assay [2] concerns the target T3, Orexin/Hypocretin receptor type 1 (Homo sapiens) (UniProt O43613).
T3 sequence (whole entry): T2 sequence (O43613 whole entry)
The experiment in a line: Agonist activity at OX1R (unknown origin) assessed as maximum efficacy at 10 uM relative to control. It is filed as functional.

For assay [3], the target named is T4, Orexin receptor type 2 (Homo sapiens) (UniProt O43614).
T4 sequence (whole entry): T1 sequence (O43614 whole entry)
The experiment in a line: Agonist activity at OX2R (unknown origin) assessed as maximum efficacy at 10 uM relative to control. The class given is functional.

Regarding `COc1ccc(-c2cccc(C(=O)N(C)C)c2)cc1S(=O)(=O)Nc1ccc2c(c1)C(N(C)C(=O)Cc1cccnc1)CCC2` (stereo not given), the Ratio EC50 in the assay listed under Homo sapiens was found to be 7.83. Besides, the EC50 (commonly the concentration at which the effect is half-maximal) at Orexin receptor type 2 was determined as 151 nM; in assay [1], 1180 nM.
For `COc1ccc(-c2cccc(C(=O)N(C)C)c2)cc1S(=O)(=O)Nc1ccc2c(c1)C(N(C)C(=O)CCc1ccccc1)CCC2` (stereo not given) the same measures were 2.95, 126 nM and 372 nM.
`COc1ccc(-c2cccc(C(=O)N(C)C)c2)cc1S(=O)(=O)Nc1ccc2c(c1)C(N(C)C(=O)c1ccccc1)CCC2` (stereo not given): the concentration for a half-maximal effect (EC50) on Orexin receptor type 2 was 618 nM; in assay [1], greater than 10000 nM. Moreover, the Emax (as a rule, the greatest response seen or fitted, relative to the assay's reference) in assay [2] came out at 8.61%.
For `COc1cccc(CC(=O)N(CC2CC2)C2CCCc3ccc(NS(=O)(=O)c4cc(-c5cccc(C(=O)N(C)C)c5)ccc4OC)cc32)c1` (stereo not given) the same measures were 78.1 nM, greater than 10000 nM and 18.7%.
`COc1ccc(CC(=O)N(C)C2CCCc3ccc(NS(=O)(=O)c4cc(-c5cccc(C(=O)N(C)C)c5)ccc4OC)cc32)cc1` (stereo not given) came in with an EC50 in assay [1] of 120 nM.
Consider `COc1ccc(-c2cccc(C(=O)N(C)C)c2)cc1S(=O)(=O)Nc1ccc2c(c1)C(N(C)C(=O)Cc1cccc(O)c1)CCC2` (stereo not given), for which the Ratio EC50 in the assay listed under Homo sapiens was found to be 12.5. Moreover, the figures for the EC50 (on Orexin receptor type 2; in assay [1]) were 57 nM and 713 nM, respectively.
With `COc1ccccc1CC(=O)N(C)C1CCCc2ccc(NS(=O)(=O)c3cc(-c4cccc(C(=O)N(C)C)c4)ccc3OC)cc21` (stereo not given), the Ratio EC50 in the assay filed under Homo sapiens amounted to 25.7. The figures for the EC50 (on Orexin receptor type 2; in assay [1]) were 3.59 nM and 92.2 nM, respectively.
The matching figures for `COc1cccc(CC(=O)NC2CCCc3ccc(NS(=O)(=O)c4cc(-c5cccc(C(=O)N(C)C)c5)ccc4OC)cc32)c1` (stereo not given): 8.61, 26.6 nM and 229 nM.
On to `COc1ccc(-c2cccc(C(=O)N(C)C)c2)cc1S(=O)(=O)Nc1ccc2c(c1)C(N(C)C(=O)C1CCCCC1)CCC2` (stereo not given), for which the figures for the EC50 (at Orexin receptor type 2; in assay [1]) were 837 nM and greater than 10000 nM, respectively. In assay [2] (filed as agonist), the Emax stood at 44.3%.
For the molecule `CCN(C(=O)Cc1cccc(OC)c1)C1CCCc2ccc(NS(=O)(=O)c3cc(-c4cccc(C(=O)N(C)C)c4)ccc3OC)cc21` (stereo not given), the Ratio EC50 in the assay listed under Homo sapiens was 18.4. Also, the EC50 on Orexin receptor type 2 came out at 19.3 nM; in assay [1] it was 356 nM.
The matching figures for `COc1ccc(CN(C)C2CCc3ccc(NS(=O)(=O)c4cc(-c5cccc(C(=O)N(C)C)c5)ccc4OC)cc32)cc1` (stereo not given): 87.8, 3.27 nM and 287 nM.
For the molecule `CCCN(C(=O)Cc1cccc(OC)c1)C1CCCc2ccc(NS(=O)(=O)c3cc(-c4cccc(C(=O)N(C)C)c4)ccc3OC)cc21` (stereo not given), the Ratio EC50 in the assay filed under Homo sapiens turned out to be 89.6. In addition, the figures for the EC50 (at Orexin receptor type 2; in assay [1]) were 43.7 nM and 3920 nM, respectively.
As for `CCOc1cccc(CC(=O)N(C)C2CCCc3ccc(NS(=O)(=O)c4cc(-c5cccc(C(=O)N(C)C)c5)ccc4OC)cc32)c1` (stereo not given), the Ratio EC50 in the assay listed under Homo sapiens came out at 25.8. Also, the concentration giving a half-maximal response (EC50) at Orexin receptor type 2 stood at 2.14 nM; in assay [1] it was 55.3 nM.
For the molecule `COc1cccc(CC(=O)N(C)[C@@H]2CCCc3ccc(NS(=O)(=O)c4cc(-c5cccc(C(=O)N(C)C)c5)ccc4OC)cc32)c1`, the Ratio EC50 in the assay filed under Homo sapiens amounted to 23.3. For the same molecule, the EC50 on Orexin receptor type 2 was determined as 0.579 nM; in assay [1] it was 13.5 nM.
For `COc1cccc(CC(=O)N(C)C2CCCc3ccc(NS(=O)(=O)c4cc(-c5cccc(C(=O)N(C)C)c5)ccc4OC)cc32)c1` (racemic) the same measures were 20.3, 1.51 nM and 30.7 nM.
In assay [1], `COC(=O)N1CCC[C@H](NS(C)(=O)=O)[C@@H]1CO[C@H]1CC[C@@H](c2ccccc2)CC1` [DANAVOREXTON] came in with a 50% effective concentration (EC50) greater than 30000 nM.
Take `COc1cccc(CC(=O)N(C)c2cccc3ccc(NS(=O)(=O)c4cc(-c5cccc(C(=O)N(C)C)c5)ccc4OC)cc23)c1`: the Ratio EC50 in the assay listed under Homo sapiens turned out to be 1.79. Moreover, the EC50 was 224 nM on Orexin receptor type 2 and 402 nM in assay [1].
As to `COc1ccc(-c2cccc(C(=O)N(C)C)c2)cc1S(=O)(=O)Nc1ccc2c(c1)C(N(C)C(=O)Cc1cccc(N(C)C)c1)CCC2` (stereo not given), the Ratio EC50 in the assay listed under Homo sapiens worked out at 15.9. Further, the EC50 was determined as 5.59 nM on Orexin receptor type 2 and 89 nM in assay [1].
The matching figures for `COc1ccc(-c2cccc(C(=O)N(C)C)c2)cc1S(=O)(=O)Nc1ccc2c(c1)C(N(C)C(=O)Cc1ccccc1)CCC2` (stereo not given): 10.5, 10.7 nM and 112 nM.
In the case of H-MTLIGAAHNGSAQLLRQLRGQLGPPGSR-NH2, the Ratio EC50 in the assay filed under Homo sapiens came to 41.7.
In the case of `COc1ccc(-c2cccc(C(=O)N(C)C)c2)cc1S(=O)(=O)Nc1ccc2c(c1)C(N(C)C(=O)Cc1cccc(F)c1)CCC2` (stereo not given), the Ratio EC50 in the assay listed under Homo sapiens amounted to 13.3. Also, the EC50 was 6.5 nM on Orexin receptor type 2 and 86.3 nM in assay [1].
As to `COc1cccc(CC(=O)OC2CCCc3ccc(NS(=O)(=O)c4cc(-c5cccc(C(=O)N(C)C)c5)ccc4OC)cc32)c1` (stereo not given), in the assay filed under Homo sapiens, the Ratio EC50 is 14. Further, the values for the half-maximal effective concentration (EC50) (at Orexin receptor type 2; in assay [1]) were 413 nM and 5780 nM, respectively.
Consider `COc1ccc(-c2cccc(C(=O)N(C)C)c2)cc1S(=O)(=O)Nc1ccc2c(c1)C(N(C)C(=O)Nc1ccccc1)CCC2` (stereo not given), for which, in assay [1], the EC50 was determined as 3250 nM.
As for `CCCCC(=O)N(C)C1CCCc2ccc(NS(=O)(=O)c3cc(-c4cccc(C(=O)N(C)C)c4)ccc3OC)cc21` (stereo not given), in the assay listed under Homo sapiens, the Ratio EC50 came to 2.18. The 50% effective concentration (EC50) at Orexin receptor type 2 was 1920 nM; in assay [1], 4180 nM.
As to `COc1cccc(CC(=O)N(C)c2cccc3c2CC(NS(=O)(=O)c2cc(-c4cccc(C(=O)N(C)C)c4)ccc2OC)CC3)c1` (stereo not given), the EC50 at Orexin receptor type 2 is greater than 10000 nM; in assay [1], 5490 nM. Besides, in assay [3], the Emax worked out at 39.9%.
For the molecule `COc1cccc(CC(=O)N(C)[C@H]2CCCc3ccc(NS(=O)(=O)c4cc(-c5cccc(C(=O)N(C)C)c5)ccc4OC)cc32)c1`, the Ratio EC50 in the assay filed under Homo sapiens came out at 461. Besides, the EC50 on Orexin receptor type 2 was determined as 2.69 nM; in assay [1], 1240 nM.
